The test system of one data set is A549. Kind of data set: MTT cell viability after iridium complex treatment, with or without light (photodynamic cancer cell killing). It is filed as cell-based. How it is done:
(§1) After seeding 1.5×10^4 cells in a 96-well plate, the cells were cultured overnight at 37° C. under 5% carbon dioxide conditions. Afterwards, the cells were treated with the iridium complex and cultured for 2 hours, after which the medium was replaced with fresh medium. After irradiated for 30 seconds with a 1 sun simulator (100 mW/cm2, PEG-L01, Peccell), cells were cultured for an additional 24 hours in a humidified incubator containing 5% carbon dioxide at 37° C. Cell viability was measured using the MTT (tetrazolium salt (3-(4,5-dimethylthiazol-2-yl)-2,5-diphenyltetrazolium bromide)) assay. MTT reagent was added to each well and cultured for 4 hours, and then the formazan crystals produced in the surviving cells were dissolved in DMSO, followed by measurement of the absorbance at 570 nm.
(§2) When the same light (1 sun, 3 J/cm^2) was irradiated to cancer cells administered with the HBrb, B2, and TIr3 iridium complexes as respective photosensitizers, the IC50 values for the respective photo sensitizers were first calculated, and the results are shown in Table 2 below.
(§3) Data indicating the inherent toxicity may be determined by cell viability under conditions without light application (hv−). The experimental results in FIGS. 6A-6F show the cell viability for each cell under conditions where no light was given, where M indicates the cell line MDA-MB-231, A indicates the cell line A549, H indicates the cell line HeLa, C indicates the cell line Caco-2, and P indicates the cell line PANC-1, respectively. FIGS. 6A, 6B, and 6C represent the cell viability when each substance was administered to each cell line for 2 hours, replaced with new media, and then cultured for an additional 24 hours. FIG. 6D is a graph of cell viability when TIr3 and B2 were administered at different concentrations, and at the concentration of a combination of the two (TIr3+B2), to PANC-1, pancreatic cancer cells. […] FIGS. 6E and 6F show the results of identifying the change in the cell viability in the MDA-MB-231 breast cancer cell line under conditions with TIr3 only and the TIr3+B2 combination depending on the presence of light irradiation.

A further data set has as its system HeLa. The data set is described as above. It counts as cell-based. The following applies: for IC50: HeLa. How it is done: as §1, §2, §3
The test system of another data set is PANC-1. The description is as above. It counts as cell-based. As to conditions: for cell viability (hv−): FIG. 6D, especially 16 and 32 μM. How it is done:
as §1, §2, §3

Another data set relates to Caco-2. Described as above. It is filed as cell-based. The protocol:
as §1, §2, §3

The next data set concerns MDA-MB-231. The description is as above. It counts as cell-based. How it is done:
as §1, §2, §3

For another data set, the system named is MKN45. The data set is described as above. It counts as cell-based. How it is done:
as §1, §2

Data set [1] in a line: Dynamic light scattering of Kolliphor HS15 micelles. It counts as physicochemical. The following applies: 1 mg/mL in distilled water using 5% Kolliphor HS15. The protocol: FIGS. 7A-7E illustrates schematic diagrams of micellized synergistic combination (SY) of TIr3 and B2 using Kolliphor HS 15 surfactant (FIG. 7A). As a result, when TIr3, B2, and 0.5 mg/ml TIr3+0.5 mg/ml B2 (SY) materials are dissolved in distilled water at a concentration of 1 mg/mL using 5% Kolliphor HS15, it was found via dynamic light scattering (DLS) that nanoparticles with a size of approximately 10 nm were formed (FIG. 7B). In addition, the size of the SY combination was reidentified through transmission electron microscopy (TEM) (FIG. 7C). […] After four administrations of the drug, the results of hepatotoxicity (alanine aminotransferase, ALT) on the 17th day are shown in FIG. 7E.

Setting [2] is: light 1 sun, 3 J/cm^2 (100 mW/cm2, 30 s), 2 h treatment, 24 h culture, read-out: IC50 (hv+).
Setting [3] is: no light, read-out: IC50 (hv−), IC50, dark.
Where [4] appears, read: light 1 sun, 3 J/cm^2, read-out: IC50 (hv+).

Read-outs that look alike come from different tables or passages of the source.

Usually IC50 stands for the midpoint of a concentration-inhibition curve. On to `O=C([O][Ir]([c]1c(-c2cc(C(F)(F)F)c3ccccc3n2)sc2ccccc12)[c]1c(-c2cc(C(F)(F)F)c3ccccc3n2)sc2ccccc12)c1ncccc1O` [FIrp], for which the half-maximal inhibitory concentration (IC50) with A549 (setting [2]), in the data set with HeLa (setting [2]) and with PANC-1 (setting [2]) was greater than 32 µM in each case.

Consider `[Cl-].c1ccc(-c2ccc3ccccc3n2)[c]([Ir+][c]2ccccc2-c2ccc3ccccc3n2)c1.c1ccc(-c2ccccn2)nc1` [TIr3], for which the IC50 was determined as 3.12 ± 0.2 µM in the data set on A549 (setting [2]); 19.8 ± 1.99 µM with A549 (setting [3]); 0.89 ± 0.09 µM with Caco-2 (setting [4]); 7.88 ± 0.13 µM with Caco-2 (setting [3]); 1.53 ± 0.07 µM in the data set with HeLa (setting [2]); 8.77 ± 0.73 µM in the data set on HeLa (setting [3]). For the same compound, the IC50 with MDA-MB-231 (setting [4]) was 0.89 ± 0.02 µM; in the data set on MDA-MB-231 (setting [3]) it was 7.51 ± 0.84 µM; with PANC-1 (setting [2]), 3.86 ± 0.18 µM; with PANC-1 (setting [3]), 10.7 ± 0.39 µM; in the data set on MKN45 (setting [4]), 0.55 ± 0.06 µM; in the data set on MKN45 (setting [3]), 16.3 ± 0.17 µM. Besides, the “cell viability (hv−)” value in the data set on PANC-1 (no light) is “low cell viability”. The “nanoparticle size (DLS)” value in data set [1] was “approximately 10 nm”.

`Cc1cc(-c2sc3ccccc3[c]2[Ir]([O]C(=O)c2ncccc2OCCCN2CCOCC2)[c]2c(-c3cc(C)c4ccccc4n3)sc3ccccc23)nc2ccccc12` [Example B2]: the IC50 in the data set on A549 (setting [2]) was 3.8 ± 1.3 µM; in the data set on A549 (setting [3]), greater than 32 µM; in the data set on Caco-2 (setting [4]), 0.68 ± 0.01 µM; in the data set on Caco-2 (setting [3]), greater than 32 µM; in the data set with HeLa (setting [2]) it was 2.4 ± 0.08 µM; with HeLa (setting [3]), greater than 32 µM. Besides, the IC50 in the data set on MDA-MB-231 (setting [4]) was 0.89 ± 0.1 µM; in the data set with MDA-MB-231 (setting [3]), greater than 32 µM; with PANC-1 (setting [2]), 11.7 ± 2.02 µM; in the data set on PANC-1 (setting [3]) it was greater than 32 µM; with MKN45 (setting [4]), 0.86 ± 0.03 µM; with MKN45 (setting [3]), greater than 32 µM. Besides, the “inherent toxicity of photosensitizer” value in the data set with HeLa (up to 32 μM, no light) is reported as “non-toxic”. For the same compound, the “cell viability (hv−)” value in the data set with PANC-1 (no light) is on record as “excellent biocompatibility”. Moreover, the “nanoparticle size (DLS)” value in data set [1] is “approximately 10 nm”.

For `CC(=O)C=C(C)[O][Ir]([c]1c(-c2cc(C)c3ccccc3n2)sc2ccccc12)[c]1c(-c2cc(C)c3ccccc3n2)sc2ccccc12` [HIra], the 50% inhibitory concentration (IC50) with A549 (setting [2]), with HeLa (setting [2]) and in the data set with PANC-1 (setting [2]) was greater than 32 µM throughout.

On to `CC(=O)C=C(C)[O][Ir]([c]1c(-c2cc(C(F)(F)F)c3ccccc3n2)sc2ccccc12)[c]1c(-c2cc(C(F)(F)F)c3ccccc3n2)sc2ccccc12` [FIra], for which the IC50 with A549 (setting [2]), with HeLa (setting [2]) and with PANC-1 (setting [2]) was greater than 32 µM in each case.

(Values after patent publication US20260233024A1, “IRIDIUM COMPLEX, PHOTOSENSITIZER, AND COMPOSITION FOR PHOTODYNAMIC THERAPY” (UNIST(ULSAN NATIONAL INSTITUTE OF SCIENCE AND TECHNOLOGY), priority 2022, published 2026).)
